In data set [1] the target is T1, Voltage-dependent T-type calcium channel subunit alpha-1H (Homo sapiens, UniProt O95180). The data set can be described thus: Inhibition of human Cav3.2 T-type Ca2+ channel expressed in HEK293 cells assessed as reduction in T-currents at 0.3 uM at -80 mV holding potential by whole cell patch-clamp assay. It is filed as cell-based.
Data set [2] addresses D(2) dopamine receptor (Rattus norvegicus) (UniProt P61169). The data set can be described thus: Displacement of [3H]-spiperone from dopamine D2 receptor in rat brain striatum membrane homogenates at 10 uM incubated for 90 mins. It is filed as cell membranes.
Data set [3] shares this target. The data set can be described thus: Displacement of [3H]-spiperone from dopamine D2 receptor in rat brain striatum membrane homogenates at 1 uM incubated for 90 mins. It is filed as cell membranes. (Loss of bound radioactivity is the signal in a displacement assay; it reports binding, not function.)
The target in data set [4] is T1, Voltage-dependent T-type calcium channel subunit alpha-1H. The data set can be described thus: Inhibition of human Cav3.2 T-type Ca2+ channel expressed in HEK293 cells assessed as effect on T-currents in response to -20 mV test pulse at -110 mV holding potential by whole cell patch-clamp assay. It is filed as cell-based. On the technique in general: The patch-clamp technique gives a direct electrical read-out from membranes.

The nature of data set [5]: Toxicity in mouse assessed as impairment of neuromuscular coordination by measuring shortened latency to fall at 10 mg/kg, ip measured after 60 to 90 mins by rota-rod test. It is filed as organism-based. As to conditions: in vivo, time 60-90 min. (Falling from the rotarod earlier than controls is read as motor impairment.)
Data set [6] has as its target 5-hydroxytryptamine receptor 2A (Rattus norvegicus) (UniProt P14842). The data set can be described thus: Antagonist activity at 5-HT2A receptor in Wistar rat jugular vein assessed as vasorelaxation of serotonin-induced contraction at 10 uM preincubated for 10 mins followed by serotonin stimulation. In kind it is functional, tissue-based.
The nature of data set [7]: Toxicity in mouse assessed as catelepsy at 10 mg/kg, ip measured for 300 mins by bar test. It is filed as organism-based. As to conditions: in vivo, 5 h.
The target in data set [8] is T1, Voltage-dependent T-type calcium channel subunit alpha-1H. The data set can be described thus: Inhibition of human Cav3.2 T-type Ca2+ channel expressed in HEK293 cells assessed as effect on T-currents in response to -20 mV test pulse at -80 mV holding potential by whole cell patch-clamp assay. It is filed as cell-based.
Data set [9] is described as follows: Half life in mouse at 10 mg/kg, ip measured for 24 hrs by LC-MS/MS analysis. In kind it is ADME, organism-based. The conditions noted are these: in vivo.
Data set [10] can be described thus: Toxicity in mouse assessed as catelepsy at 8 nmol per mouse, icv measured for 180 mins by bar test. The conditions noted are these: in vivo, icv_or_intrathecal, 3 h.
In data set [11] the target is Voltage-dependent T-type calcium channel subunit alpha-1G (Homo sapiens, UniProt O43497). The data set can be described thus: Inhibition of human Cav3.1 T-type Ca2+ channel expressed in HEK293 cells assessed as effect on T-currents in response to -20 mV test pulse at -80 mV holding potential by whole cell patch-clamp assay. In kind it is cell-based.
The target of data set [12] is 5-hydroxytryptamine receptor 2A (Rattus norvegicus) (UniProt P14842). The data set can be described thus: Antagonist activity at 5-HT2A receptor in Wistar rat jugular vein assessed as vasorelaxation of serotonin-induced contraction at 100 uM preincubated for 10 mins followed by serotonin stimulation. It is filed as functional, tissue-based. The conditions noted are these: filed as antagonist.

The nature of data set [13]: Antagonist activity at 5-HT1 receptor (unknown origin). More on the design: species or system Homo sapiens.
The subject of data set [14] is Mus musculus. The data set can be described thus: Antinociceptive activity in Na2S induced colonic pain mouse model at 0.03 to 0.5 mg/kg, ip pretreated for 30 mins followed by intra-colonic administration of Na2S and measured for 30 mins by von frey test. It is filed as functional, organism-based. As to conditions: dose 0.03-0.5 mg/kg, time 60.0 min.
A short description of data set [15]: Toxicity in mouse assessed as impairment of neuromuscular coordination by measuring shortened latency to fall at 1 mg/kg, ip measured after 60 to 90 mins by rota-rod test. In kind it is organism-based. As to conditions: in vivo, time 60-90 min.
The test system of data set [16] is Mus musculus. The data set can be described thus: Antinociceptive activity in Na2S induced referred hyperalgesia mouse model at 0.03 to 0.5 mg/kg, ip pretreated for 30 mins followed by intracolonic administration of Na2S and measured for 30 mins by von frey test. In kind it is functional, organism-based. As to conditions: dose 0.03-0.5 mg/kg, time 60.0 min.
A short description of data set [17]: Toxicity in mouse assessed as catelepsy at 0.3 to 1 mg/kg, ip measured for 300 mins by bar test. It is filed as organism-based. As to conditions: in vivo, 5 h, dose 0.3-1 mg/kg.

Active and inactive are the calls of the source. The calls are words filed in the database; no cut-off is given here.

This note sets out measurements from ChEMBL document CHEMBL5352414 (Eur J Med Chem, 2022).

5-hydroxytryptamine receptor 2A (Rattus norvegicus), sequence (P14842 whole entry): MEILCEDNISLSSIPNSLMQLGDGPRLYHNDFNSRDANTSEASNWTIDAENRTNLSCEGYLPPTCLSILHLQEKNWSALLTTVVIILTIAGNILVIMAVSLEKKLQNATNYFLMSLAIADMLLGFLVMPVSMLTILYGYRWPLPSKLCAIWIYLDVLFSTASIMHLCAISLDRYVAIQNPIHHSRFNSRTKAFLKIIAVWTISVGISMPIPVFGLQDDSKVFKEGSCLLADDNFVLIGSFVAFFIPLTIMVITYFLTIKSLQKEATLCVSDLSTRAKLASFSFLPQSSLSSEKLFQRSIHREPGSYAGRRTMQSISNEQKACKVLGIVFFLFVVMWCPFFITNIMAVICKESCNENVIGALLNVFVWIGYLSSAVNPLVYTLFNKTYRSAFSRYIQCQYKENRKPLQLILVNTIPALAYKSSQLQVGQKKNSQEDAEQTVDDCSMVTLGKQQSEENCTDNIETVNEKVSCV
D(2) dopamine receptor (Rattus norvegicus), sequence (P61169 whole entry): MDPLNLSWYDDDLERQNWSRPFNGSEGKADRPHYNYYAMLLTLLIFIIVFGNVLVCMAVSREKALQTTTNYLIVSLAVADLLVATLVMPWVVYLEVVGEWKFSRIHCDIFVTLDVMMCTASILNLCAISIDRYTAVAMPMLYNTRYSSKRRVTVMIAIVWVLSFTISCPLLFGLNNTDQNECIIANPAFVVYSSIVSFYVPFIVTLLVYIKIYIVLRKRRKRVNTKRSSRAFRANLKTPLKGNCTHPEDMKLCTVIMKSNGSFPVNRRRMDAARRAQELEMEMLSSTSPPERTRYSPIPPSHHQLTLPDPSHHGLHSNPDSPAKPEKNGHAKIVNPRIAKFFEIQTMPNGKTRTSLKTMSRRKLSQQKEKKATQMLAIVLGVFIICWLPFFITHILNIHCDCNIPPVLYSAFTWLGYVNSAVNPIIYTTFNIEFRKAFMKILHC
T1 sequence (O95180 whole entry): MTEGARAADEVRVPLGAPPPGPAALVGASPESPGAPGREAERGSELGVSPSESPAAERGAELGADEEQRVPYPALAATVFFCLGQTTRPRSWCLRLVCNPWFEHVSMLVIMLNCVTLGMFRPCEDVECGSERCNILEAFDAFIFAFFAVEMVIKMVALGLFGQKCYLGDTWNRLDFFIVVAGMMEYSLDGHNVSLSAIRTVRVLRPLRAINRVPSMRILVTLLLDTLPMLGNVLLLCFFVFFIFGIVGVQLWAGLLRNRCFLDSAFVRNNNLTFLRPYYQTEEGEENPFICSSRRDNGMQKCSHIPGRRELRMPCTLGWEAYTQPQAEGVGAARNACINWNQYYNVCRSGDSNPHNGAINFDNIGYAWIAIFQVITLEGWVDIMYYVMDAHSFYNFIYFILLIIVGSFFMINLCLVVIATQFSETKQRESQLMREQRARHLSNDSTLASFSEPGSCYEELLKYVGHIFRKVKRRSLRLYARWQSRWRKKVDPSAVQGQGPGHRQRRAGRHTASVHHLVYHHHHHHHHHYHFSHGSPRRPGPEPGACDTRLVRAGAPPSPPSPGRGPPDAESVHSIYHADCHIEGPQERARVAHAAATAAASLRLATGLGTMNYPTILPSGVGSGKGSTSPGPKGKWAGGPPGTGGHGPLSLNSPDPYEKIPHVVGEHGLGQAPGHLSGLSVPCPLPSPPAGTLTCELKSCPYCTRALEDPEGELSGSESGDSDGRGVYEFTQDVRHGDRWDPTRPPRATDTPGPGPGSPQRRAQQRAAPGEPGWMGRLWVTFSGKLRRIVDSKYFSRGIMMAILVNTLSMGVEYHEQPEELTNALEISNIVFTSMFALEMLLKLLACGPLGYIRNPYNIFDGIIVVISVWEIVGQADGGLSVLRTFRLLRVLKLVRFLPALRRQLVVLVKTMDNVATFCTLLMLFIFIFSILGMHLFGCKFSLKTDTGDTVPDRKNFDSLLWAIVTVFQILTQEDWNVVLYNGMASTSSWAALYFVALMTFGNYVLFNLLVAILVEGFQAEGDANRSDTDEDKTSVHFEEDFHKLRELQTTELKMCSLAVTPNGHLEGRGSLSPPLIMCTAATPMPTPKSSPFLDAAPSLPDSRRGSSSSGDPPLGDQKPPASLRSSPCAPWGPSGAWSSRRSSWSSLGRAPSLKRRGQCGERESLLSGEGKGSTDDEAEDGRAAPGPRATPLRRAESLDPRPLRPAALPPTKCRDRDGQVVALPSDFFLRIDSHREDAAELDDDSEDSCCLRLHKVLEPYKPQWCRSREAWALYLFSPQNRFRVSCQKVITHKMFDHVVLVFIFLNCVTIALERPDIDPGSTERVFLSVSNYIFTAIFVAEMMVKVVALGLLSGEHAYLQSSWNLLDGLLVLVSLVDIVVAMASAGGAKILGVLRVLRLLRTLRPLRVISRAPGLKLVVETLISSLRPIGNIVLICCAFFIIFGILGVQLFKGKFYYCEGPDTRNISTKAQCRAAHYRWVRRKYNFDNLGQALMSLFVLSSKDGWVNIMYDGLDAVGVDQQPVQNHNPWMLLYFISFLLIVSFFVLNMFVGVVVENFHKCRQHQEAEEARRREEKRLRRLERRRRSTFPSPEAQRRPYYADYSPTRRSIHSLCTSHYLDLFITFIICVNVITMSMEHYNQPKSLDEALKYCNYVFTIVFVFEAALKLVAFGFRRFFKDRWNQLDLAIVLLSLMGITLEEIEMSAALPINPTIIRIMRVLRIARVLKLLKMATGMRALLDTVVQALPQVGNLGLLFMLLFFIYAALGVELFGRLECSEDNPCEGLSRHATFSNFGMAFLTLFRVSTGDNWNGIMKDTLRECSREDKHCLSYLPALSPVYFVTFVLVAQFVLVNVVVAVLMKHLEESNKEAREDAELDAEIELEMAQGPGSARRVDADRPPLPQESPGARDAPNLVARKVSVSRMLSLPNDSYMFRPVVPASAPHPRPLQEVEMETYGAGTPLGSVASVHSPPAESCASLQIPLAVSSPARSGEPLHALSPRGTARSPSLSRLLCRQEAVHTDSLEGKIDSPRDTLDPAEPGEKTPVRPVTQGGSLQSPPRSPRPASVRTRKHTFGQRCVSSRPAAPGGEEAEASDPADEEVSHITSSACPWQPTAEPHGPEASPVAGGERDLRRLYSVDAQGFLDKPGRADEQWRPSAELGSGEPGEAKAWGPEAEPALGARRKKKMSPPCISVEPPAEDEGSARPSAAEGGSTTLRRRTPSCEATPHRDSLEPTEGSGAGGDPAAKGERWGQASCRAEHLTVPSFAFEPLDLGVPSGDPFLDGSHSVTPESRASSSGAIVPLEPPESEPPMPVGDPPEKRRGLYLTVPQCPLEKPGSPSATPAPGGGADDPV

In the case of `COc1ccccc1CCCCN1CCC(n2c(=O)n(CCCCc3ccccc3)c3ccccc32)CC1`, the inhibition result in data set [1] is “Active”. Moreover, the result in data set [2] and in [3] was inactive.
Take `O=c1n(CCCCc2cccc(F)c2)c2ccccc2n1C1CCN(CCCCc2cccc(F)c2)CC1`: the IC50 in data set [4] came to 1110 nM; in data set [8], 93 nM; in data set [11] it was 217 nM. Also, the Activity result in data set [5], in [7] and in data set [10] was “Non-Toxic” throughout. Further, the outcome in [6] and in data set [3] was inactive. For the same compound, the half-life in data set [9] was 2.42 h. The inhibition entry in data set [1] is “Active”.
For the compound `COc1ccccc1CCCCN1CCC(n2c(=O)n(CCCCc3ccccc3OC)c3ccccc32)CC1`, in [1], the inhibition result is “Active”. In data set [3], the outcome was inactive.
Regarding `COC(=O)[C@@H](N)CCCNC(=N)N[N+](=O)[O-]`, the result in data set [12] was Active.
As for `COc1ccccc1CCCCn1c(=O)n(C2CCN(CCCCc3ccccc3)CC2)c2ccccc21`, the inhibition result in [1] is “Active”. Also, the outcome in data set [3] was inactive.
Take `O=c1n(CCCCc2ccccc2)c2ccccc2n1C1CCN(CCCCc2ccccc2)CC1`: the Activity entry in data set [5], in data set [7] and in data set [10] was “Non-Toxic” throughout. The inhibition result in data set [1] was “Active”. Further, the result in data set [2] and in data set [3] was inactive. Moreover, the IC50 in data set [11] amounted to 209 nM.
As for `O=c1[nH]c2ccccc2n1C1CCN(CCCC(c2ccc(F)cc2)c2ccc(F)cc2)CC1` [PIMOZIDE], the result (in [6] (filed as antagonist); in the data set with Mus musculus [14]; in the data set on Mus musculus [16]) was Active. The half-inhibitory concentration (IC50) in data set [13] was 2440 nM; in [11], 307 nM. The compound further showed a half-life in [9] of 2.47 h. In addition, the Activity result in data set [10], in [15] and in [17] was “Toxic” throughout.
On to `O=c1n(CCCCc2ccccc2)c2ccccc2n1C1CCN(CCCCc2ccccc2F)CC1`, for which the inhibition entry in data set [1] is “Active”. In addition, in [3], the outcome was inactive.
`O=c1n(CCCCc2ccccc2Cl)c2ccccc2n1C1CCN(CCCCc2ccccc2)CC1`: the inhibition result in data set [1] was “Active”. The outcome in data set [3] was inactive.
In the case of `O=C(CCCc1ccccc1)N1CCC(n2c(=O)n(CCCCc3ccccc3)c3ccccc32)CC1`, the Activity entry in data set [5], in data set [7] and in data set [10] was “Non-Toxic” each time. The inhibition result in data set [1] is “Active”. Besides, the outcome in [2] and in data set [3] was inactive. The half-maximal inhibitory concentration (IC50) in [11] is 240 nM.
For `O=c1n(CCCCc2ccccc2)c2ccccc2n1C1CCN(CCCOc2ccccc2)CC1`, the inhibition entry in data set [1] is “Active”. Also, the result in data set [2] and in data set [3] was inactive.
Consider `O=c1n(CCCCc2ccccc2)c2ccccc2n1C1CCN(CCCCc2cccc(F)c2)CC1`, for which the IC50 in [8] was determined as 151 nM; in data set [11] it was 211 nM. For the same compound, in [1], the inhibition entry was “Active”. In addition, the result in [3] was inactive.
Regarding `COc1ccc2c(c1)c(CC(=O)O)c(C)n2C(=O)c1ccc(Cl)cc1`, the result in data set [6] (filed as antagonist) was Active.
On to `O=c1n(CCCCc2ccccc2)c2ccccc2n1C1CCN(CCCC(c2ccc(F)cc2)c2ccc(F)cc2)CC1`, for which, in data set [1], the inhibition result was “inactive”. Besides, in data set [3], the result was inactive.

In general, IC50 refers to the concentration at which inhibition is half-maximal. A word on the half-life: it is the time in which the quantity being followed falls by half. Low readings indicate rapid decline, high ones slow decline.
